Laboratory results taken from patent publication US4738954A, “Novel N^6 -substituted-5'-oxidized adenosine analogs” (Warner-Lambert Company, priority 1985, dated 1988).

What was measured:
[1] = system: locomotor activity; assay: Activity and Screen Test done orally in rats: locomotor activity; format: in vivo
Protocol: Immediately following the screen test, the final phase of testing is initiated by placing each group of three mice in one actophotometer (Life Sciences, 22, 1067-1076, 1978). The actophotometer consists of a cylindrical chamber whose center is occupied by another cylinder which contains the illumination for six photocells located on the perimeter of the chamber. Six light-beam interruptions equal one count. Locomotor activity is recorded by computer at ten minute intervals for 60 minutes.
(§1) The data obtained from the screen test are expressed as percent of mice falling off the screen. Data derived from locomotor activity of drug treated mice are compared to the activity of vehicle treated animals and are expressed as percent inhibition of spontaneous locomotion. All percentages reported for inhibition of locomotion (LI) are based upon data accumulated for one hour. Both phases of testing are graded: A=60-100%; C=31-59%; and N=0-30%. An overall dose rating is obtained by the following criteria:
(§2) *This was done orally in rats, rather than IP in mice.

[2] = system: animals falling off the inverted screen; assay: Activity and Screen Test done orally in rats: screen test; format: in vivo
Protocol: A two part testing procedure is started one hour postinjection. First, the screen test (ST) is performed (see Pharmac. Biochem. Behav. 6, 351-353, 1977). Briefly this test consists of placing mice on individual wire screens which are then rotated 180 degrees at the start of a 60 second observation period. The number of mice falling off the inverted screen is recorded.
as §1, §2

[3] = target: T1, adenosine A1 receptor (Rattus norvegicus, UniProt P25099); assay: Adenosine Receptor Binding--A1 Receptor Affinity (RBA1), [3H]-CHA displacement; conditions: 1.0 nM [3H]-CHA, rat brain, 25° C, 1 h; read-out: RBA-1 (IC50, A1 receptor affinity)
T1 construct: Whole brain minus cerebellum and brainstem from male Long Evans rats; from tissue; host or cells: rat whole brain minus cerebellum and brainstem, membranes
T1 sequence (P25099 1-326): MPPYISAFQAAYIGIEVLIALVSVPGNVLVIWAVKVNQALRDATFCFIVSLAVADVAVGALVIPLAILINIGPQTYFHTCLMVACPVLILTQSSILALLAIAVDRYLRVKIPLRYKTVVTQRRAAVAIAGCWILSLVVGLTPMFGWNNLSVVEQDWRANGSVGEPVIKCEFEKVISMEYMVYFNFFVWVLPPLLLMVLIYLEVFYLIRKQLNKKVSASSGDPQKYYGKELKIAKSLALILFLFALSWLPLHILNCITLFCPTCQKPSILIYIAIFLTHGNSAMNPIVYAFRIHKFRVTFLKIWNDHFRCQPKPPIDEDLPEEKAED
Protocol: Adenosine Receptor Binding--A1 Receptor Affinity (RBA1)
Whole brain minus cerebellum and brainstem from male Long Evans rats (105-200 g) was homogenized in 30 volumes of ice-cold 0.05M Tris-HCl buffer pH 7.7 using a Brinkman Polytron PT-10, (setting number 6 for 20 seconds) and centrifuged for ten minutes at 20,000×g (Sorvall RC-2), 4° C. The supernatant was discarded, and the pellet was resuspended and centrifuged as before. The pellet was resuspended in 20 ml Tris-HCl buffer containing two International Units/ml of adenosine deaminase (Sigma type III from calf intestinal mucosa), incubated at 37° C. for 30 minutes, then subsequently at 0° C. for ten minutes. The homogenate was again centrifuged, and the final pellet was resuspended in ice-cold 0.05M Tris-HCl buffer pH 7.7 to a concentration of 20 mg/ml original wet tissue weight and used immediately.
Tissue homogenate (10 mg/ml) was incubated in 0.05M Tris-HCl buffer pH 7.7 containing 1.0 nM ((^3 H))-N^6 -cyclohexyladenosine ([^3 H]-CHA) with or without test agents in triplicate for one hour at 25° C. Incubation volume was 2 ml. Unbound [^3 H]-CHA was separated by rapid filtration under reduced pressure through Whatman glass fiber (GF/B) filters. The filters were rinsed three times with 5 ml of ice cold 0.05M Tris-HCl buffer pH 7.7. The radio-labeled ligand retained on the filter was measured by liquid scintillation spectrophotometry after shaking the filters for one hour or longer on a mechanical shaker in 10 ml of Beckman Ready-Solv HP scintillation cocktail.
Nonspecific binding was defined as the binding which occured in the presence of 1 mM theophylline. The concentration of test agent which inhibited 50% of the specific binding (IC50) was determined by nonlinear computer curve fit. The Scatchard plot was calculated by linear regression of the line obtained by plotting the amount of radioligand bound (pmoles/gram of tissue) versus [formula] Since the amount of radioligand bound was a small fraction of the total amount added, free radioligand was defined as the concentration of (nM) of radioligand added to the incubation mixture. The Hill coefficient was calculated by linear regression of the line obtained by plotting the log of the bound radioligand vs the log of the [formula] The maximal number of binding sites (Bmax) was calculated from the Scatchard plot.

[4] = target: T2, adenosine A2 receptor (Rattus norvegicus, UniProt P30543); assay: Adenosine Receptor Binding--A2 Receptor Affinity (RBA2), [3H]NECA displacement; format: rat (Sprague-Dawley striatal membranes); conditions: 4 nM [3H]NECA + 50 nM N6-cyclopentyladenosine, rat striatum, 25° C, 60 min; read-out: RBA-2 (IC50, A2 receptor affinity)
T2 construct: Brains were thawed and then kept on ice while the striata were dissected out; tissue Pel-Freez (Rogers, Arkansas) (rat brains); host or cells: rat striatum, membranes
Protocol: Adenosine Receptor Binding--A2 Receptor Affinity (RBA2)
Brains from 200-500 g mixed sex Sprague-Dawley rats were purchased from Pel-Freez (Rogers, Arkansas). Fresh brains from male Long-Evans hooded rats (Blue Spruce Farms, Altamont, NY) gave essentially identical results. Brains were thawed and then kept on ice while the striata were dissected out. Striata were disrupted in 10 vol of ice-cold 50 mM Tris.HCl (pH 7.7 at 25° C., pH 8.26 at 5° C.) (Tris) for 30 seconds in a Polytron PT-10 (Brinkmann) at setting 5. The suspension was centrifuged at 50,000×g for ten minutes, the supernatant discarded, the pellet resuspended in 10 vol ice-cold Tris as above, recentrifuged, resuspended at 1 g/5 ml, and stored in plastic vials at -70° C. (stable for at least six months). When needed, tissue was thawed at room temperature, disrupted in a Polytron, and kept on ice until used.
All incubations were for 60 minutes at 25° C. in 12×75 mm glass tubes containing 1 ml Tris with 5 mg original tissue weight of rat weight of rat striatal membranes, 4 nM [^3 H]-N-ethyl adenosine-5'-carboxamide ([^3 H]NECA), 50 nM N^6 -cyclopentyladenosine (to eliminate A1 receptor binding), 10 mM MgCl2, 0.1 units/ml of adenosine deaminase and 1% dimethylsulfoxide. N^6 -Cyclopentyladenosine was dissolved at 10 mM in 0.02N HCl and diluted in Tris. Stock solutions and dilutions of N^6 -cyclopentyladenosine could be stored at -20° C. for several months. Test compounds were dissolved at 10 mM in dimethylsulfoxide on the same day as the experiment, and diluted in dimethylsulfoxide to 100× the final incubation concentration. Control incubations received an equal volume (10 μl) of dimethylsulfoxide; the resulting concentration of dimethylsulfoxide had no effect on binding. [^3 H]NECA was diluted to 40 nM in Tris. The membrane suspension (5 mg/0.79 ml) contained sufficient MgCl2 and adenosine deaminase to give 10 mM and 0.1 units/ml, respectively, final concentration in the incubation. […] After all additions, the rack of tubes was vortexed, and the tubes were then incubated for 60 min at 25° C. in a shaking water bath. The rack of tubes was vortexed an additional time halfway through the incubation.
Incubations were terminated by filtration through 2.4 cm GF/B filters under reduced pressure. Each tube was filtered as follows: the contents of the tube were poured on the filter, 4 ml of ice-cold Tris were added to the tube and the contents poured onto the filter, and the filter was washed twice with 4 ml of ice-cold Tris. The filtration was complete in about twelve seconds. Filters were put in scintillation vials, 8 ml of Formula 947 scintillation fluid added, and the vials left overnight, shaken, and counted in a liquid scintillation counter at 40% efficiency.
Nonspecific binding was defined as binding in the presence of 100 μM N^6 -cyclopentyladenosine, and specific binding was defined as total binding minus nonspecific binding. The IC50 was calculated by weighted nonlinear least squares curve-fitting to the mass-action equation. [formula] where Y is cpm bound
T is cpm total binding without drug
S is cpm specific binding without drug
D is the concentration of drug and
K is the IC50 of the drug
Weighting factors were calculated under the assumption that the standard deviation was proportional to the predicted value of Y. Nonspecific binding was treated as a very large (infinite) concentration of drug in the computer analysis.

T2 sequence (P30543 whole entry): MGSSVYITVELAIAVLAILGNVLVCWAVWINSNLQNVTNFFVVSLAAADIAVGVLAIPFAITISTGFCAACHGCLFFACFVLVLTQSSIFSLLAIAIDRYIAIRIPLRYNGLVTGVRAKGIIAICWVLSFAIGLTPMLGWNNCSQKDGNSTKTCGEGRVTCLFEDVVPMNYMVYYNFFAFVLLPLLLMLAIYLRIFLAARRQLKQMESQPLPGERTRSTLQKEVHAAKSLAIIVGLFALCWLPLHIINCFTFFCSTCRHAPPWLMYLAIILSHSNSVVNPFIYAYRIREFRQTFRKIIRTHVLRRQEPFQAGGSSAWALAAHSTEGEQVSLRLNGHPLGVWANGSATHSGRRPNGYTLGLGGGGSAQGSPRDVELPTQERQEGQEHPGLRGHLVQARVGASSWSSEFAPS

Screen test failure ([2]; 0.1 mg/kg orally)	Screen test failure ([2]; 0.3 mg/kg orally)	Screen test failure ([2]; 1 mg/kg orally)	IC50 [3]	IC50 [4]	Screen test failure ([2]; 3 mg/kg orally)	Screen test failure ([2]; 10 mg/kg orally)	Structure (SMILES)	Inhibition of locomotor activity ([1]; 0.1 mg/kg orally)	Inhibition of locomotor activity ([1]; 0.3 mg/kg orally)	Inhibition of locomotor activity ([1]; 1 mg/kg orally)	Inhibition of locomotor activity ([1]; 3 mg/kg orally)	Inhibition of locomotor activity ([1]; 10 mg/kg orally)
33%	11%	44%	–	–	–	–	CCNC(=O)[C@H]1O[C@@H](n2cnc3c(NC4CC5CCC4C5)ncnc32)[C@H](O)[C@@H]1O (relative stereo) [Example 9, N-6-Norbornyladenosine-5'ethylcarboxamide]	37%	69%	89%	–	–
–	–	–	29 nM	161 nM	–	–	CCNC(=O)[C@H]1O[C@@H](n2cnc3c(N[C@@H]4CCc5ccccc54)ncnc32)[C@H](O)[C@@H]1O [Example 2, (R)-N-6-(1-indanyl) adenosine-5'-ethylcarboxamide]	–	–	–	–	–
22%	6%	17%	0.9 nM	198 nM	22%	72%	CCNC(=O)[C@H]1O[C@@H](n2cnc3c(NC4CCCC4)ncnc32)[C@H](O)[C@@H]1O [Example 4, N6-cyclopentyladenosine-5'-ethylcarboxamide]	33%	36%	81%	84%	84%
–	–	–	16 nM	2680 nM	–	–	CCOC(=O)[C@H]1O[C@@H](n2cnc3c(N[C@H](C)Cc4ccccc4)ncnc32)[C@H](O)[C@@H]1O [Example 7, (R)-N-6-[(2-Phenyl-1-methyl)ethyl]-adenosine-5'-ethylcarboxylate]	–	–	–	–	–
